{"source": "patent US20240083861A1", "about": "“HSD17B13 INHIBITORS AND USES THEREOF” (FL2022-001, Inc., priority 2020, published 2024)"}
{"biological_target": "T1, Recombinant human HSD17B13 enzyme (Homo sapiens, UniProt Q7Z5P4)", "T1 sequence (Q7Z5P4 20-300)": "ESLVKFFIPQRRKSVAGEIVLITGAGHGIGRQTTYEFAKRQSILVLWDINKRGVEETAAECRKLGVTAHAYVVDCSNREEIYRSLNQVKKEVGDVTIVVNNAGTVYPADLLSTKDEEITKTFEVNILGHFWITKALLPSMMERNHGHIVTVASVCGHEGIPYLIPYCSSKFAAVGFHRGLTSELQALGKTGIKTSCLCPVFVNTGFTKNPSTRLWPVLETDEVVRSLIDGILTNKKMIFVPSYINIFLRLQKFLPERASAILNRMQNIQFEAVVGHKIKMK", "assay": "HSD17b13 NAD(P)H-Glo biochemical assay", "settings": "50 uM estradiol, 1 mM NAD+, NAD(P)H-Glo luminescence; read-out: HSD17β13 IC50", "method_in_brief": "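Recombinant human HSD17B13 in 20 mM Tris pH7.4 with 0.002% Tween-20 and 0.02% BSA was preincubated with inhibitor for 20 minutes at RT. The reaction ran 3 hours at 37° C with 50 uM estradiol and 1 mM NAD+ (final). NADH formed was detected by NAD(P)H-Glo luminescence after 1 hour at RT.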", "units": {"IC50": "µM"}}
{"smiles": "Cn1nc(-c2cc(C(F)(F)F)c(F)c(O)c2F)c2cnc(N3CCNC4(CC4)C3)nc21", "note": "[Compound 18.18, 2,6-Difluoro-3-(1-methyl-6-(4,7-diazaspiro[2.5]octan-7-y1)-1H-pyrazolo[3,4-d]pyrimidin-3-y1)-5-(trifluoromethyl)phenol]", "IC50": "< 0.1"}
{"smiles": "CCN1CCN(c2ncc3c(-c4cc(C(F)(F)F)c(F)c(O)c4F)nn(C)c3n2)CC1=O", "note": "[Compound 18.19, 4-(3-(2,4-Difluoro-3-hydroxy-5-(trifluoromethyl)phenyl)-1-methyl-1H-pyrazolo[3,4-d]pyrimidin-6-yl)-1-ethylpiperazin-2-one]", "IC50": "0.1 to 1"}
{"smiles": "COCC1(N(C)c2ncc3c(-c4cc(C(F)(F)F)c(F)c(O)c4F)nn(C)c3n2)CCC1", "note": "[Compound 18.20, 2,6-Difluoro-3-(6-((1-(methoxymethyl)cyclobutyl)(methy 1)amino)-1-methy1-1H-pyrazolo[3,4-d]pyrimidin-3-y1)-5-(trifluoromethyl)phenol]", "IC50": "< 0.1"}
{"smiles": "Cn1nc(-c2cc(C(F)(F)F)c(F)c(O)c2F)c2cnc(N3CCN(C4CC4)C(=O)C3)nc21", "note": "[Compound 18.21, 1-Cyclopropyl-4-(3-(2,4-difluoro-3-hydroxy-5-(trifluoromethyl)phenyl)-1-methyl-1H-pyrazolo[3,4-d]pyrimidin-6-y1)piperazin-2-one]", "IC50": "< 0.1"}
{"smiles": "CC(=O)NC1CCN(c2ncc3c(-c4cc(C(F)(F)F)c(F)c(O)c4F)nn(C)c3n2)CC1", "note": "[Compound 18.22, N-(1-(3-(2,4-Difluoro-3-hydroxy-5-(trifluoromethyl)phenyl)-1-methyl-1H-pyrazolo[3,4-d]pyrimidin-6-y1)piperidin-4-yl)acetamide]", "IC50": "< 0.1"}
{"smiles": "Cn1nc(-c2cc(C(F)(F)F)c(F)c(O)c2F)c2cnc(N3CCC(NS(C)(=O)=O)CC3)nc21", "note": "[Compound 18.23, N-(1-(3-(2,4-Difluoro-3-hydroxy-5-(trifluoromethyl)phenyl)-1-methyl-1H-pyrazolo[3,4-d]pyrimidin-6-yl)piperidin-4-yl)methanesulfonamide]", "IC50": "< 0.1"}
{"smiles": "Cn1nc(-c2cc(C(F)(F)F)c(F)c(O)c2F)c2cnc(N3CCC4(CCN4)CC3)nc21", "note": "[Compound 18.24, 2,6-Difluoro-3-(1-methyl-6-(1,7-diazaspiro[3.5]nonan-7-yl)-1H-pyrazolo[3,4-d]pyrimidin-3-y1)-5-(trifluoromethyl)phenol]", "IC50": "0.1 to 1"}
{"smiles": "Cn1nc(-c2cc(C(F)(F)F)c(F)c(O)c2F)c2cnc(N3CCC4(CC3)CNC4=O)nc21", "note": "[Compound 18.25, 7-(3-(2,4-Difluoro-3-hydroxy-5-(trifluoromethyl)phenyl)-1-methyl-1H-pyrazolo[3,4-d]pyrimidin-6-yl)-2,7-diazaspiro[3.5]nonan-1-one]", "IC50": "< 0.1"}
{"smiles": "Cn1nc(-c2cc(C(F)(F)F)c(F)c(O)c2F)c2cnc(N3CCC4(CCCC(=O)N4)CC3)nc21", "note": "[Compound 18.26, 9-(3-(2,4-Difluoro-3-hydroxy-5-(trifluoromethyl)phenyl)-1-methyl-1H-pyrazolo[3,4-d]pyrimidin-6-yl)-1,9-diazaspiro[5.5]undecan-2-one]", "IC50": "< 0.1"}
{"smiles": "CC(C)C(=O)NC1CCN(c2ncc3c(-c4cc(C(F)(F)F)c(F)c(O)c4F)nn(C)c3n2)CC1", "note": "[Compound 18.27, N-(1-(3-(2,4-Difluoro-3-hydroxy-5-(trifluoromethyl)phenyl)-1-methyl-1H-pyrazolo[3,4-d]pyrimidin-6-y1)piperidin-4-yl)isobutyramide]", "IC50": "< 0.1"}
{"smiles": "CC(=O)N(C)C1CCN(c2ncc3c(-c4cc(C(F)(F)F)c(F)c(O)c4F)nn(C)c3n2)CC1", "note": "[Compound 18.28, N-(1-(3-(2,4-Difluoro-3-hydroxy-5-(trifluoromethyl)phenyl)-1-methyl-1H-pyrazolo[3,4-d]pyrimidin-6-yl)piperidin-4-y1)-N-methylacetamide]", "IC50": "< 0.1"}
{"smiles": "CNC1CCN(c2ncc3c(-c4cc(C(F)(F)F)c(F)c(O)c4F)nn(C)c3n2)CC1", "note": "[Compound 18.29, 2,6-Difluoro-3-(1-methyl-6-(4-(methylamino)piperidin-1-yl)-1H-pyrazolo[3,4-d]pyrimidin-3-y1)-5-(trifluoromethyl)phenol]", "IC50": "0.1 to 1"}
{"smiles": "Cn1nc(-c2cc(C(F)(F)F)c(F)c(O)c2F)c2cnc(N3CCC(C(=O)O)CC3)nc21", "note": "[Compound 18.30, 1-(3-(2,4-Difluoro-3-hydroxy-5-(trifluoromethyl)phenyl)-1-methyl-1H-pyrazolo[3,4-d]pyrimidin-6-y1)piperidine-4-carboxylic Acid]", "IC50": "0.1 to 1"}
{"smiles": "CN(C)C1CCN(c2ncc3c(-c4cc(C(F)(F)F)c(F)c(O)c4F)nn(C)c3n2)CC1", "note": "[Compound 18.31, 3-(6-(4-(Dimethylamino)piperidin-1-y1)-1-methyl-1H-pyrazolo[3,4-d]pyrimidin-3-y1)-2,6-difluoro-5-(trifluoromethyl)phenol]", "IC50": "0.1 to 1"}
{"smiles": "Cn1nc(-c2cc(C(F)(F)F)c(F)c(O)c2F)c2cnc(N3CCOC(c4ccccc4)C3)nc21", "note": "(stereo not shown) [Compound 18.32, 2,6-Difluoro-3-(1-methyl-6-(2-phenylmorpholino)-1H-pyrazolo[3,4-d]pyrimidin-3-y1)-5-(trifluoromethyl)phenol]", "IC50": "< 0.1"}
{"smiles": "CN(C)CC1CN(c2ncc3c(-c4cc(C(F)(F)F)c(F)c(O)c4F)nn(C)c3n2)CCO1", "note": "(stereo not shown) [Compound 18.33, 3-(6-(2-((Dimethylamino)methyl)morpholino)-1-methyl-1H-pyrazolo[3,4-d]pyrimidin-3-y1)-2,6-difluoro-5-(trifluoromethyl)phenol]", "IC50": "0.1 to 1"}
{"smiles": "CN(C)CC1CCN(c2ncc3c(-c4cc(C(F)(F)F)c(F)c(O)c4F)nn(C)c3n2)CC1", "note": "[Compound 18.34, 3-(6-(4-((Dimethylamino)methyl)piperidin-1-y1)-1-methyl-1H-pyrazolo[3,4-d]pyrimidin-3-y1)-2,6-difluoro-5-(trifluoromethyl)phenol]", "IC50": "0.1 to 1"}
{"smiles": "Cn1nc(-c2cc(C(F)(F)F)c(F)c(O)c2F)c2cnc(N3CCCCC3)nc21", "note": "[Compound 18.35, 2,6-Difluoro-3-(1-methyl-6-(piperidin-1-yl)-1H-pyrazolo[3,4-d]pyrimidin-3-y1)-5-(trifluoromethyl)phenol]", "IC50": "< 0.1"}
{"smiles": "Cn1nc(-c2cc(C(F)(F)F)c(F)c(O)c2F)c2cnc(N3CCC4(CCOCC4)CC3)nc21", "note": "[Compound 18.36, 2,6-Difluoro-3-(1-methyl-6-(3-oxa-9-azaspiro[5.5]undecan-9-yl)-1H-pyrazolo[3,4-d]pyrimidin-3-y1)-5-(trifluoromethyl)phenol]", "IC50": "< 0.1"}
{"smiles": "Cn1nc(-c2cc(C(F)(F)F)c(F)c(O)c2F)c2cnc(N3CCC4(CCOC4)CC3)nc21", "note": "[Compound 18.37, 2,6-Difluoro-3-(1-methyl-6-(2-oxa-8-azaspiro[4.5]decan-8-yl)-1H-pyrazolo[3,4-d]pyrimidin-3-y1)-5-(trifluoromethyl)phenol]", "IC50": "< 0.1"}
{"smiles": "Cn1nc(-c2cc(C(F)(F)F)c(F)c(O)c2F)c2cnc(N3CCOCC3C(=O)O)nc21", "note": "(stereo not shown) [Compound 18.38, 4-(3-(2,4-Difluoro-3-hydroxy-5-(trifluoromethyl)phenyl)-1-methyl-1H-pyrazolo[3,4-d]pyrimidin-6-yl)morpholine-3-carboxylic Acid]", "IC50": "1 to 30"}
{"smiles": "CN(C)CCC1CN(c2ncc3c(-c4cc(C(F)(F)F)c(F)c(O)c4F)nn(C)c3n2)CCO1", "note": "(stereo not shown) [Compound 18.39, 3-(6-(2-(2-(Dimethylamino)ethyl)morpholino)-1-methyl-1H-pyrazolo[3,4-d]pyrimidin-3-y1)-2,6-difluoro-5-(trifluoromethyl)phenol]", "IC50": "0.1 to 1"}
